Measurements taken from patent publication US6890736B1, “Methods for producing proteins in cultured cells” (Immunex Corporation, priority 2002, dated 2005).

Assays:
[1] = system: cell line 25H9 (CHO cells); assay: Example 1: cell number (hemocytometer) and viability (trypan blue); format: cell-based, Chinese hamster
Protocol: The following experiment was designed to test whether decitabine can induce the production of a protein, in this case a recombinant soluble form of the human interleukin 1 receptor type II (IL-1-R-II), at either 31° C. or 34° C. Soluble versions of IL-1R-II and methods for producing it are described in U.S. Pat. No. 5,767,064. DNA encoding a soluble form of the human IL-1R-II was inserted into pG3.6, which is described in Morris et al. ((1998), Cytotechnology 28:9-17). This construct was used to transfect CHO cells to produce cell lines, including 25H9, that produce IL-1R-II protein.
(§1) About 2×10^6 cells of cell line 25H9 were inoculated into 30 milliliters of serum-free medium and incubated at the temperatures indicated in Table 1 in vented shake flasks. At the times indicated in Table 1, samples were taken from each flask to determine IL-1R-II titer, cell number, and cell viability. IL-1R-II protein titer was determined by ELISA assay. Cell number was determined by counting cells in a hemocytometer. Cell viability was determined by trypan blue staining and counting stained cells in a hemocytometer. Cumulative viable cell density (CVCD) is the area under the curve of a plot of the viable cell density versus time (in units of cells/ml/day). Productivity (pg of IL-1R-II/cell/day) was determined by dividing the protein titer on a particular day by the CVCD on the same day. Cells were fed with amino acids on days 2 and 5, and dextrose was added periodically in order to maintain levels above 2.0 g/L. All samples were done in duplicate, and the data shown is an average value.

[2] = system: cell line 25H9 (CHO cells); assay: Example 2: cell number and viability; format: cell-based, Chinese hamster; settings: 30° C., 10 μM decitabine
Protocol: as §1
To determine an optimum temperature and decitabine concentration, three temperatures (30° C., 31° C., and 32° C.) and three decitabine concentrations (10 μM, 15 μM, and 20 μM) were tested. A 31° C. culture containing 0.5 mM sodium butyrate was grown as a control. […] See e.g. International Application Nos. WO 89/06686 and WO 87/05626. The experiment was performed as in Example 1 except that the inducer concentrations, temperatures, and days at which data was collected are as indicated in Table 2 and FIG. 1.

[3] = 31° C., 1 μM decitabine, day 10
[4] = 31° C., 5 μM decitabine, day 10
[5] = 31° C., 10 μM decitabine, day 0
[6] = 31° C., 10 μM decitabine, day 3
[7] = 31° C., 10 μM decitabine, day 5
[8] = 31° C., 10 μM decitabine, day 7
[9] = 31° C., 10 μM decitabine, day 10
[10] = 34° C., 1 μM decitabine, day 10
[11] = 34° C., 5 μM decitabine, day 10
[12] = 34° C., 10 μM decitabine, day 0
[13] = 34° C., 10 μM decitabine, day 3
[14] = 34° C., 10 μM decitabine, day 5
[15] = 34° C., 10 μM decitabine, day 7

For Nc1ncn([C@H]2C[C@H](O)[C@@H](CO)O2)c(=O)n1 [decitabine, 5-aza-2′-deoxycytidine], the “Cumulative Viable Cell Density” value ([1]; 31° C., 1 μM decitabine, day 0) was 0 mL⁻¹ day⁻¹, the “Viable Cell Density” value ([1]; 31° C., 1 μM decitabine, day 0) was 1.8e+06 mL⁻¹ and the “Cumulative Viable Cell Density” value ([1]; 31° C., 1 μM decitabine, day 3) was 8.3e+06 mL⁻¹ day⁻¹. The “Viable Cell Density” value ([1]; 31° C., 1 μM decitabine, day 3) was 3.7e+06 mL⁻¹, the “Cumulative Viable Cell Density” value ([1]; 31° C., 1 μM decitabine, day 5) was 1.7e+07 mL⁻¹ day⁻¹ and the “Viable Cell Density” value ([1]; 31° C., 1 μM decitabine, day 5) was 5e+06 mL⁻¹. The “Cumulative Viable Cell Density” value ([1]; 31° C., 1 μM decitabine, day 7) was 2.77e+07 mL⁻¹ day⁻¹, the “Viable Cell Density” value ([1]; 31° C., 1 μM decitabine, day 7) was 5.7e+06 mL⁻¹ and the “Cumulative Viable Cell Density” value [1, 3] was 4.38e+07 mL⁻¹ day⁻¹. For the same compound, the “Viable Cell Density” value [1, 3] was 5.1e+06 mL⁻¹, the “Cumulative Viable Cell Density” value ([1]; 31° C., 5 μM decitabine, day 0) was 0 mL⁻¹ day⁻¹ and the “Viable Cell Density” value ([1]; 31° C., 5 μM decitabine, day 0) was 1.8e+06 mL⁻¹. For the same compound, the “Cumulative Viable Cell Density” value ([1]; 31° C., 5 μM decitabine, day 3) was 8.5e+06 mL⁻¹ day⁻¹, the “Viable Cell Density” value ([1]; 31° C., 5 μM decitabine, day 3) was 3.8e+06 mL⁻¹ and the “Cumulative Viable Cell Density” value ([1]; 31° C., 5 μM decitabine, day 5) was 1.57e+07 mL⁻¹ day⁻¹. The “Viable Cell Density” value ([1]; 31° C., 5 μM decitabine, day 5) was 3.5e+06 mL⁻¹, the “Cumulative Viable Cell Density” value ([1]; 31° C., 5 μM decitabine, day 7) was 2.28e+07 mL⁻¹ day⁻¹ and the “Viable Cell Density” value ([1]; 31° C., 5 μM decitabine, day 7) was 3.6e+06 mL⁻¹. The “Cumulative Viable Cell Density” value [1, 4] was 4e+07 mL⁻¹ day⁻¹, the “Viable Cell Density” value [1, 4] was 7.8e+06 mL⁻¹ and the “Cumulative Viable Cell Density” value [1, 5] was 0 mL⁻¹ day⁻¹. The “Viable Cell Density” value [1, 5] was 1.8e+06 mL⁻¹, the “Cumulative Viable Cell Density” value [1, 6] was 7.4e+06 mL⁻¹ day⁻¹ and the “Viable Cell Density” value [1, 6] was 3.1e+06 mL⁻¹. The “Cumulative Viable Cell Density” value [1, 7] was 1.44e+07 mL⁻¹ day⁻¹, the “Viable Cell Density” value [1, 7] was 3.9e+06 mL⁻¹ and the “Cumulative Viable Cell Density” value [1, 8] was 2.15e+07 mL⁻¹ day⁻¹. The “Viable Cell Density” value [1, 8] was 3.3e+06 mL⁻¹, the “Cumulative Viable Cell Density” value [1, 9] was 3.18e+07 mL⁻¹ day⁻¹ and the “Viable Cell Density” value [1, 9] was 3.6e+06 mL⁻¹. The “Cumulative Viable Cell Density” value ([1]; 34° C., 1 μM decitabine, day 0) was 0 mL⁻¹ day⁻¹, the “Viable Cell Density” value ([1]; 34° C., 1 μM decitabine, day 0) was 1.8e+06 mL⁻¹ and the “Cumulative Viable Cell Density” value ([1]; 34° C., 1 μM decitabine, day 3) was 1.14e+07 mL⁻¹ day⁻¹. For the same compound, the “Viable Cell Density” value ([1]; 34° C., 1 μM decitabine, day 3) was 5.7e+06 mL⁻¹, the “Cumulative Viable Cell Density” value ([1]; 34° C., 1 μM decitabine, day 5) was 2.55e+07 mL⁻¹ day⁻¹ and the “Viable Cell Density” value ([1]; 34° C., 1 μM decitabine, day 5) was 8.4e+06 mL⁻¹. The “Cumulative Viable Cell Density” value ([1]; 34° C., 1 μM decitabine, day 7) was 4.15e+07 mL⁻¹ day⁻¹, the “Viable Cell Density” value ([1]; 34° C., 1 μM decitabine, day 7) was 7.6e+06 mL⁻¹ and the “Cumulative Viable Cell Density” value [1, 10] was 5.69e+07 mL⁻¹ day⁻¹. For the same compound, the “Viable Cell Density” value [1, 10] was 2.7e+06 mL⁻¹, the “Cumulative Viable Cell Density” value ([1]; 34° C., 5 μM decitabine, day 0) was 0 mL⁻¹ day⁻¹ and the “Viable Cell Density” value ([1]; 34° C., 5 μM decitabine, day 0) was 1.8e+06 mL⁻¹. The “Cumulative Viable Cell Density” value ([1]; 34° C., 5 μM decitabine, day 3) was 1.16e+07 mL⁻¹ day⁻¹, the “Viable Cell Density” value ([1]; 34° C., 5 μM decitabine, day 3) was 5.9e+06 mL⁻¹ and the “Cumulative Viable Cell Density” value ([1]; 34° C., 5 μM decitabine, day 5) was 2.47e+07 mL⁻¹ day⁻¹. For the same compound, the “Viable Cell Density” value ([1]; 34° C., 5 μM decitabine, day 5) was 7.2e+06 mL⁻¹, the “Cumulative Viable Cell Density” value ([1]; 34° C., 5 μM decitabine, day 7) was 3.81e+07 mL⁻¹ day⁻¹ and the “Viable Cell Density” value ([1]; 34° C., 5 μM decitabine, day 7) was 6.3e+06 mL⁻¹. The “Cumulative Viable Cell Density” value [1, 11] was 5.27e+07 mL⁻¹ day⁻¹, the “Viable Cell Density” value [1, 11] was 3.4e+06 mL⁻¹ and the “Cumulative Viable Cell Density” value [1, 12] was 0 mL⁻¹ day⁻¹. For the same compound, the “Viable Cell Density” value [1, 12] was 1.8e+06 mL⁻¹, the “Cumulative Viable Cell Density” value [1, 13] was 9.8e+06 mL⁻¹ day⁻¹ and the “Viable Cell Density” value [1, 13] was 4.7e+06 mL⁻¹. For the same compound, the “Cumulative Viable Cell Density” value [1, 14] was 1.93e+07 mL⁻¹ day⁻¹, the “Viable Cell Density” value [1, 14] was 4.8e+06 mL⁻¹ and the “Cumulative Viable Cell Density” value [1, 15] was 2.73e+07 mL⁻¹ day⁻¹. The “Viable Cell Density” value [1, 15] was 3.2e+06 mL⁻¹, the “Cumulative Viable Cell Density” value ([2]; day 0) was 0 mL⁻¹ day⁻¹ and the “Viable Cell Density” value ([2]; day 0) was 2e+06 mL⁻¹. For the same compound, the “Cumulative Viable Cell Density” value ([2]; day 3) was 7.4e+06 mL⁻¹ day⁻¹, the “Viable Cell Density” value ([2]; day 3) was 3e+06 mL⁻¹ and the “Cumulative Viable Cell Density” value ([2]; day 6) was 1.43e+07 mL⁻¹ day⁻¹. For the same compound, the “Viable Cell Density” value ([2]; day 6) was 1.7e+06 mL⁻¹ and the “Cumulative Viable Cell Density” value ([2]; day 8) was 1.81e+07 mL⁻¹ day⁻¹.
